Data as given in US20260297542A1, “HERBICIDE RESISTANT PLANTS” (SYNGENTA CROP PROTECTION AG, priority 2023, published 2026).
Positions count from the first letter of the chain named.

Key:
Assay in all cases: fluorescent Protoporphyrinogen Oxidase assay, crude extract
Format in all cases: biochemical
Conditions in all cases: read-out: percentage inhibition
[1] = target: T1, AtPPO1 S305L L361D V365M (SEQ ID NO.133) (Arabidopsis thaliana, UniProt P55826, S305L/V365M/Y361D)
T1 sequence (P55826 35-537 S305L/Y361D/V365M): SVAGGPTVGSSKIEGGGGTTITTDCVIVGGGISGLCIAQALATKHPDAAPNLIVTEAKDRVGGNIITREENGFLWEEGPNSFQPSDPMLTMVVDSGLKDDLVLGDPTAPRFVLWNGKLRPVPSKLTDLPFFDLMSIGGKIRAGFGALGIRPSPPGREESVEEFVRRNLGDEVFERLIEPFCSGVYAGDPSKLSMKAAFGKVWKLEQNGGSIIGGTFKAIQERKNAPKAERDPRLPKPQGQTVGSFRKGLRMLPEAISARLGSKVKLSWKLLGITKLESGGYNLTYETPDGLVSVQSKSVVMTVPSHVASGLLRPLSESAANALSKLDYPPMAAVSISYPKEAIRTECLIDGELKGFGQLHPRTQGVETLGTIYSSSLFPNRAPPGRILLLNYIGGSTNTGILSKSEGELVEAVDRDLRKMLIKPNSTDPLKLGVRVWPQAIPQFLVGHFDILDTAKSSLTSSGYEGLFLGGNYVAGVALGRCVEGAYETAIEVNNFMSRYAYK
Protocol: (§1) A pET24 plasmid containing a DNA sequence encoding each identified variant mutant of AtPPO1 derived from Arabidopsis thaliana, codon-optimised for expression in E. coli, and under control of a T7 promoter, was synthesised by Twist Bioscience. This plasmid was expressed in E. coli BL21 (DE3) hemG with 50 μg/mL kanamycin and 25 μg/mL chloramphenicol selection. Overnight cultures grown at 37° C. were used to inoculate 150 ml AIM (AIM-Terrific Broth Base including Trace elements, Formedium) in 500 ml shake flasks at a ratio of 1:100. Cultures were grown at 37° C., 200 rpm for 3 hours and then overnight at 26° C. Cells were harvested by 4° C. centrifugation for 20 minutes at 600 rpm. Cells were stored at −80° C. until extraction. 0.5-1 g of cell pellet from was thawed and resuspended in ratio of 1:1 in lysis buffer (20 mM Tris pH8, 500 mM sodium chloride, 10% glycerol, 1× complete Protease EDTA-free Inhibitor Tablet (Roche)). The resuspension was sonicated at 50% using 10-20 cycles of 10 seconds, 20 seconds off. After sonication Triton X-100 was added to the lysates at a final concentration of 0.5%. The lysates were centrifuged at 13.00 rpm for 10 min at 4° C. The crude extracts (i.e, supernatants) were stored at −80° C. Protein concentration was measured and calculated using the absorbance at 280 nm. Extracts were diluted 1 in 4 and 10 uL was analysed by SDS PAGE.
(§2) Variant crude extracts were assayed in a fluorescent Protoporphyrinogen Oxidase assay in black 384 well plates with a clear bottom. The total volume of the reaction mixture was 100 ul and contained 100 mM K2HPO4 pH7.2, 1 mM Na2EDTA, 5 mM DTT, 20% glycerol (v/v), 0.025% Tween 20 (v/v). Reactions were started with addition of 1 uM protoporphyrinogen IX final assay concentration. Fluorescence was monitored over 30 min using a Tecan plate reader with an excitation wavelength of 405 nm, emission wavelength of 635 nm, gain of 90 and 15 flashes. 10 ul of 3-fold serial dilution of crude extract in 100 mM K2HPO4 pH7.2, 1 mM Na2EDTA, 5 mM DTT, 20% glycerol (v/v), 0.05% Tween 20 (v/v) was tested in the assay against 1% DMSO and 100 ppm herbicide B to determine the correct amount of crude extract to add to the assay to observe activity. 10 ul of the appropriate crude extract dilution was then tested in the fluorescent Protoporphyrinogen Oxidase assay against DMSO and 10-fold dose response of each compound (herbicides A to E) with a top rate of 100 ppm.
(§3) The percentage inhibition was calculated as the activity in the presence of one of four concentrations of each herbicide compound A to E (note that the compounds labelled as A to E are identified hereinabove in the relevant section of the description) as a percentage of the enzyme activity in DMSO (Table 5).

[2] = target: T2, AtPPO1 S305L V365M (SEQ ID NO.128) (Arabidopsis thaliana, UniProt P55826, S305L/V365M)
T2 construct: made in house; host or cells: E. coli BL21 (DE3) hemG, crude extract
T2 sequence (P55826 35-537 S305L/V365M): T1 sequence (P55826 35-537 S305L/Y361D/V365M) with D327Y
Protocol: as §1, §2, §3

WT (SEQ ID NO.1) AtPPO1 = target: T3, WT (SEQ ID NO.1) AtPPO1 (Arabidopsis thaliana, UniProt P55826)
T3 construct: made in house; host or cells: E. coli BL21 (DE3) hemG, crude extract
T3 sequence (P55826 35-537): T1 sequence (P55826 35-537 S305L/Y361D/V365M) with L271S, D327Y, M331V
Protocol: as §1, §2, §3

SMILES	inhibition at 0.1 ppm [1]	inhibition at 1 ppm [1]	inhibition at 10 ppm [1]	inhibition at 100 ppm [1]	inhibition at 0.1 ppm [2]	inhibition at 1 ppm [2]	inhibition at 10 ppm [2]	inhibition at 100 ppm [2]	inhibition at 0.1 ppm (WT (SEQ ID NO.1) AtPPO1)	inhibition at 1 ppm (WT (SEQ ID NO.1) AtPPO1)	inhibition at 10 ppm (WT (SEQ ID NO.1) AtPPO1)	inhibition at 100 ppm (WT (SEQ ID NO.1) AtPPO1)
CC(C)N(C)S(=O)(=O)NC(=O)c1cc(-n2c(=O)cc(C(F)(F)F)n(C)c2=O)c(F)cc1Cl [Herbicide E, saflufenacil]	0%	10%	76%	88%	0%	71%	91%	100%	91%	97%	100%	100%
C#CCN1C(=O)C(F)(F)Oc2cc(F)c(-n3c(=O)n(C)c(=S)n(C)c3=O)cc21 [Herbicide B, trifludimoxazin]	96%	100%	100%	100%	100%	97%	95%	100%	97%	97%	96%	100%
CCOC(=O)[C@]1(C)CC(c2cc(-n3c(=O)n(C)c(=S)n(C)c3=O)c(F)cc2Cl)=NO1 [Herbicide D, ethyl (5S)-3-[2-chloro-5-(3,5-dimethyl-2,6-dioxo-4-thioxo-1,3,5-triazinan-1-yl)-4-fluoro-phenyl]-5-methyl-4H-isoxazole-5-carboxylate]	37%	87%	99%	100%	51%	84%	96%	100%	91%	90%	96%	100%
CCOC(=O)C1(C)CC(c2cc(-n3c(=O)cc(C(F)(F)F)n(C)c3=O)c(F)cc2Cl)=NO1 (stereo not drawn) [Herbicide C, 3-(2-chloro-4-fluoro-5-(3-methyl-2,6-dioxo-4-trifluoromethyl-3,6-dihydropyrimidin-1(2H)-yl)phenyl)-5-methyl-4,5-dihydroisoxazole-5-carboxylic acid ethyl ester]	30%	56%	92%	100%	45%	76%	95%	100%	91%	91%	98%	93%
CCOC(=O)COc1ncccc1Oc1cc(-n2c(=O)cc(C(F)(F)F)n(C)c2=O)c(F)cc1Cl [Herbicide A, epyrifenacil]	9%	53%	84%	100%	41%	64%	92%	91%	94%	100%	97%	100%
